Results from patent publication US10391095B2, “DNA-PK inhibitors” (Vertex Pharmaceuticals Incorporated, priority 2012, dated 2019).
pKi: −log10 of the molar value.

molecular target: DNA-PK (Homo sapiens, UniProt P78527); experiment: DNA-PK inhibition assay (radiometric, 33P-ATP); assay type: biochemical; conditions: 100 μM ATP, competitive tight-binding fit
Method: Compounds were screened for their ability to inhibit DNA-PK kinase using a standard radiometric assay. Briefly, in this kinase assay the transfer of the terminal ^33P-phosphate in ^33P-ATP to a peptide substrate is interrogated. The assay was carried out in 384-well plates to a final volume of 50 μL per well containing approximately 6 nM DNA-PK, 50 mM HEPES (pH 7.5), 10 mM MgCl2, 25 mM NaCl, 0.01% BSA, 1 mM DTT, 10 μg/mL sheared double-stranded DNA (obtained from Sigma), 0.8 mg/mL DNA-PK peptide ([…] obtained from American Peptide), and 100 μM ATP. Accordingly, compounds of the invention were dissolved in DMSO to make 10 mM initial stock solutions. Serial dilutions in DMSO were then made to obtain the final solutions for the assay. A 0.75 μL aliquot of DMSO or inhibitor in DMSO was added to each well, followed by the addition of ATP substrate solution containing ^33P-ATP (obtained from Perkin Elmer). The reaction was started by the addition of DNA-PK, peptide and ds-DNA. After 45 min, the reaction was quenched with 25 μL of 5% phosphoric acid. The reaction mixture was transferred to MultiScreen HTS 384-well PH plates (obtained from Millipore), allowed to bind for one hour, and washed three times with 1% phosphoric acid. Following the addition of 50 μL of Ultima Gold™ high efficiency scintillant (obtained from Perkin Elmer), the samples were counted in a Packard TopCount NXT Microplate Scintillation and Luminescence Counter (Packard BioScience). The Ki values were calculated using Microsoft Excel Solver macros to fit the data to the kinetic model for competitive tight-binding inhibition.

pKi, > 7.52:
CNC(=O)c1c(F)cnc2c([C@H](C)CNc3cc(-c4ccc(C(C)(C)O)nc4)ncn3)cccc12 [Compound 866]
COc1ccccc1[C@H](C)CNc1cc(-c2cnc3c(cnn3CC3CC3)c2)ncn1 [Compound 140]
CNC(=O)c1ccnc2c([C@H](C)CNc3cc(-c4ccnc(C)c4)ncn3)ccc(F)c12 [Compound 903]
CNC(=O)c1ccnc2c([C@H](C)CNc3cc(-c4ccc(NCCN5CCNC5=O)nc4)ncn3)cccc12 [Compound 719]
CCCNCCNc1ccc(-c2cc(NC[C@@H](C)c3cccc4c(C(=O)NC)ccnc34)ncn2)cn1 [Compound 705]
CNC(=O)c1ccnc2c([C@H](C)CNc3cc(-c4cc(OC)nc(OC)c4)ncn3)cccc12 [Compound 889]
Cc1ccc(-c2cc(NCC(C)c3ccccc3OC3CCCCC3)ncn2)cn1 (centres unmarked) [Compound 183]
CNC(=O)c1ccnc2c([C@H](C)CNc3cc(-c4ccc(NC5CC5)nc4)ncn3)ccc(F)c12 [Compound 943]
CNC(=O)c1ccnc2c([C@H](C)CNc3cc(N4CCn5ccnc5C4)ncn3)cccc12 [Compound 741]
C[C@H](CNc1cc(-c2cc(F)c3ncccc3c2)ncn1)c1ccnc2c1OCC2 [Compound 597]
CCc1ncc(-c2cc(NC[C@@H](C)c3ccc(F)c4c(C(=O)NC)ccnc34)ncn2)cn1 [Compound 830]
CNC(=O)c1ccnc2c([C@H](C)CNc3cc(-c4ccc(C#N)cc4)ncn3)cccc12 [Compound 683]
COCCn1ncc2cc(-c3cc(NCC(C)c4ccccc4OC4COC4)ncn3)cnc21 (centres unmarked) [Compound 215]
Cc1ccc(-c2cc(NCC(C)c3ccc(F)cc3OC3CC3)ncn2)cn1 (centres unmarked) [Compound 270]
COc1ccc(N)cc1C(C)CNc1cc(-c2ccc(C)nc2)ncn1 (centres unmarked) [Compound 290]
CCOc1ncc(-c2cc(NC[C@@H](C)c3cccc4c(C(=O)NC)ccnc34)ncn2)cc1C [Compound 950]
CNC(=O)c1ccnc2c([C@H](C)CNc3cc(-c4cnc5c(c4)OCCO5)ncn3)cccc12 [Compound 935]
CNC(=O)c1ccc(C(C)CNc2cc(-c3cnc4c(cnn4CCO)c3)ncn2)c(OC)c1 (centres unmarked) [Compound 153]
CNC(=O)c1ccc([C@H](C)CNc2cc(-c3ccc(N(C)C)nc3)ncn2)c(OC)c1 [Compound 359]
CNC(=O)c1ccnc2c([C@H](C)CNc3cc(-c4ccc(NCC(=O)N(C)C)nc4)ncn3)cccc12 [Compound 633]
C[C@H](CNc1cc(-c2cnc3c(cnn3C3COC3)c2)ncn1)c1ccnc2c1OCC2 [Compound 417]
CNC(=O)c1ccnc2c([C@H](C)CNc3cc(-c4ccc(C)nc4)ncn3)cccc12 [Compound 476]
CC(CNc1cc(-c2ccc(N3CCN(C)CC3)nc2)ncn1)c1cccc2cccnc12 (centres unmarked) [Compound 236]
Cc1ncc(-c2cc(NC[C@@H](C)c3cccc4c(C(F)F)ccnc34)ncn2)cn1 [Compound 669]
CNC(=O)c1c(F)cnc2c([C@H](C)CNc3cc(-c4ccc(C(O)C(C)C)nc4)ncn3)cccc12 (some centres unmarked) [Compound 927]
COc1sccc1C(C)CNc1cc(-c2cnc3c(cnn3CCO)c2)ncn1 (centres unmarked) [Compound 259]
CNC(=O)c1ccc(C(C)CNc2cc(-c3ccc(OC(C)C)nc3)ncn2)c(OC)c1 (centres unmarked) [Compound 324]
C[C@H](CNc1cc(-c2cnc3c(cnn3C3CN(C(=O)OC(C)(C)C)C3)c2)ncn1)c1ccnc2c1OCCO2 [Compound 526]
CNC(=O)c1ccnc2c([C@H](C)CNc3cc(-c4ccc(NC5CCN(Cc6ccccc6)C5)nc4)ncn3)cccc12 (some centres unmarked) [Compound 701]
CNC(=O)c1ccc(C(C)CNc2cc(-c3cnc4c(cnn4CCC#N)c3)ncn2)c(OC)c1 (centres unmarked) [Compound 442]
CCOc1ccc(-c2cc(NC[C@@H](C)c3cccc4c(C(=O)NC)ccnc34)ncn2)cn1 [Compound 933]
CNC(=O)c1ccc(C(C)CNc2cc(-c3cnc4c(cnn4CC(=O)OC)c3)ncn2)c(OC)c1 (centres unmarked) [Compound 273]
CC(O)Cn1ncc2cc(-c3cc(NC[C@@H](C)c4ccnc5c4OCCO5)ncn3)cnc21 (single isomer, unassigned) [Compound 503]
CC(=O)N1CCOc2c([C@H](C)CNc3cc(-c4cnc(C)nc4)ncn3)cccc21 [Compound 627]
C[C@H](CNc1cc(-c2ccc(N)nc2)ncn1)c1ccnc2c1OCC2 [Compound 594]
CNC(=O)c1ccc([C@H](C)CNc2cc(-c3ccc4ncccc4c3)ncn2)c(OC)c1 [Compound 454]
CC(CNc1cc(-c2cnc3c(cnn3C3CCN(C)CC3)c2)ncn1)c1ccccc1O (centres unmarked) [Compound 151]
CNC(=O)c1c(F)cnc2c([C@H](C)CNc3cc(-c4cnc(C)s4)ncn3)cccc12 [Compound 828]
C[C@H](CNc1cc(-c2ccc(N(C)C)nc2)ncn1)c1ccnc2c1OCCO2 [Compound 460]
CNC(=O)c1ccnc2c([C@H](C)CNc3cc(-c4cnc(OC5CCCN(C(=O)OC(C)(C)C)C5)nc4)ncn3)cccc12 (some centres unmarked) [Compound 747]
COc1ccccc1[C@H](C)CNc1cc(-c2ccc(NC3CCN(C)CC3)nc2)ncn1 [Compound 254]
CNC(=O)c1ccc([C@H](C)CNc2cc(-c3ccc(NC(C)CO)nc3)ncn2)c(OC)c1 (single isomer, unassigned) [Compound 357]
CNC(=O)c1ccnc2c([C@H](C)CNc3cc(-c4ccc(NCCNCCO)nc4)ncn3)cccc12 [Compound 707]
CNC(=O)c1ccc([C@H](C)CNc2cc(-c3cnc4c(ccn4CCO)c3)ncn2)c(OC)c1 [Compound 269]
Cc1ccc(-c2cc(NC[C@@H](C)c3ccnc4cc(C)oc34)ncn2)cn1 [Compound 563]
CNC(=O)c1ccnc2c([C@H](C)CNc3cc(-c4cc(C)nc(OC)c4)ncn3)cccc12 [Compound 863]
CNC(=O)c1ccnc2c([C@H](C)CNc3cc(-c4ccc(NCCCO)nc4)ncn3)cccc12 [Compound 715]
Cc1ccc(-c2cc(NC[C@@H](C)c3cncc4c3OCCN4)ncn2)cn1 [Compound 837]
CNC(=O)c1c(F)cnc2c([C@H](C)CNc3cc(-c4ccnc(C5CC5)c4)ncn3)cccc12 [Compound 917]
CNC(=O)c1c(F)cnc2c([C@H](C)CNc3cc(-c4cnc(OC5CCC5)nc4)ncn3)cccc12 [Compound 981]
CNC(=O)c1ccnc2c([C@H](C)CNc3cc(-c4cnc(OC5COC5)nc4)ncn3)cccc12 [Compound 666]
CNCCCNc1cc(-c2cc(NC[C@@H](C)c3ccccc3OC)ncn2)ccn1 [Compound 209]
CNC(=O)c1ccnc2c([C@H](C)CNc3cc(-c4cnc(CO)c(OC)c4)ncn3)ccc(F)c12 [Compound 916]
CNC(=O)c1c(F)cnc2c([C@H](C)CNc3cc(-c4cnc(C5CCC5)nc4)ncn3)cccc12 [Compound 856]
CCNc1ccc(-c2cc(NC[C@@H](C)c3cccc4c(C(=O)NC)ccnc34)ncn2)cn1 [Compound 581]
CNC(=O)c1ccnc2c([C@H](C)CNc3cc(-c4ccc(N(C)CCOCC5CC5)nc4)ncn3)cccc12 [Compound 714]
CNC(=O)c1ccnc2c([C@H](C)CNc3cc(-c4ccnc(C5CC5)c4)ncn3)ccc(F)c12 [Compound 914]
COc1ccccc1[C@H](C)CNc1cc(-c2ccc(NCCO)nc2)ncn1 [Compound 118]
CNC(=O)c1ccc([C@H](C)CNc2cc(-c3ccc(F)nc3)ncn2)c(OC)c1 [Compound 328]
CNC(=O)c1ccnc2c([C@H](C)CNc3cc(-c4ccc(C5(O)COC5)cc4)ncn3)cccc12 [Compound 809]
CNC(=O)c1ccnc2c([C@H](C)CNc3cc(-c4cnc(NC)c(C#N)c4)ncn3)cccc12 [Compound 955]
CNC(=O)c1ccnc2c([C@H](C)CNc3cc(-c4ccc(N5CC(CO)C5)nc4)ncn3)cccc12 [Compound 736]
